This note sets out measurements from US20150320820A1, “MICROBIOCIDES FROM PLANT EXTRACTS FOR PROTECTION AGAINST HSV 2 INFECTION” (Council of Scientific and Industrial Research, priority 2012, published 2015).

Values after ≈ are worked out from the molar mass of the structure shown.

The subject of one series is HSV-2. Nature of the series: Anti-HSV-2 plaque reduction assay in Vero cells. The class given is cell-based, Herpes Simplex Virus Type-2. The conditions noted are these: HSV-2 plaque assay. As for the experimental part:
13 wild plant species belonging to eight families Convolvulaceae (3 species), Polygonaceae (2 species), Anacardiaceae (1 species), Combretaceae (2 species), Lauraceae (1 species), Asteraceae (2 species), Zingiberaceae (1 species) and Rhamnaceae (1 species) were selected.
(§1) The methanol extracts of the plant parts and their fractions separated as less polar, medium polar and polar fractions using column chromatography or solvent separation/partitioning, were assessed for toxicity and subsequently for inhibition of HSV-2 in Vero cells by plaque reduction assay. These extracts and fractions were also tested for anti-HIV-1 activity and inhibition of other sexually transmitted pathogens like C. albicans, N gonorrhoea and H. ducreyi.
On the technique in general: In a plaque reduction assay, fewer plaques than in the control indicate reduced infectivity or spread.

A further series concerns Vero cells. Nature of the series: Cytotoxicity in Vero cells. The class given is cell-based. The conditions noted are these: cytotoxic concentration. How it is done: as §1
(§2) According to Table 3, the extracts of plant species selected from the group consisting of Polygonum glabrum, Rhus mysorensis, Terminalia paniculata, Cuscuta reflexa, Terminalia crenulata, Cassytha filiformis, Scutia myrtina, were studied for cytotoxicity in Vero cells.

Series [1] can be described thus: Cytotoxicity in Vero cells. The class given is cell-based. The conditions noted are these: African green monkey, cytotoxic concentration. As for the experimental part:
as §1, §2

Series [2] relates to Haemophilus duceryi ATCC 33921. Nature of the series: Anti-Ducreyi activity by agar disc diffusion. The class given is cell-based, Haemophilus ducreyi. The conditions noted are these: H. duceryi ATCC 33921 (Tetracycline Sensitive); 10 μg disc, positive control. As for the experimental part: A tetracycline sensitive strain of H. duceryi ([…]) was cultured on Chanchroid agar (GC agar supplemented with 2% haemoglobin, 5% FBS and 1% isovitalex and incubated at 33° C. for 72 hrs. in a candle jar with 45% moisture. The strain was identified by colony characteristics, Gram stain, growth characteristics (requirement for X and V factors) and Tween 80 hydrolysis as described earlier, and stored at −70° C. in brain heart infusion broth containing 20% glycerol.
The inoculum of each strain was prepared following the CLSI guidelines for bacteria and yeasts. The 0.5 McFarland standard inoculums (approx. 1.5×10^8 CFU/ml) of N. gonorrhoeae, H. duceryi and C. albicans were prepared from freshly grown cultures, in sterile 0.85% normal saline and mixed thoroughly. […]
The primary screening of plant extracts for activity against the three microorganisms included in the study was carried out by Kirby Baur agar disc diffusion method as described earlier. […] The discs (extract/fraction and controls) were placed on the plates previously inoculated with the respective bacterial/fungal culture, incubated as mentioned above and the zone of inhibition was recorded. […] The minimum inhibitory and minimum cidal concentrations of the extracts showing inhibition were determined using following methods.
A general note: A growth-free zone around the sample is the usual read-out of agar diffusion tests.

Setting [3] is: Human alphaherpesvirus 2, Vero cells.

One may read the IC50 as the concentration at which inhibition is half-maximal. A high value points to weaker potency in that assay. As a reminder, the IC80 is the concentration needed for an effect of 80%. A low value points to greater potency. By CC50 is commonly meant the concentration that lowers cell viability or growth by half. Lower therefore signals harm at low concentration. In the series on HSV-2 (setting [3]), `Nc1nc2c(ncn2COCCO)c(=O)[nH]1` [Acyclovir] returned a half-inhibitory concentration (IC50) of 5.6 µg/mL (≈ 24.9 µM) and an IC80 of 2.81 µg/mL (≈ 12.5 µM). Moreover, the TI in the series with HSV-2 (Therapeutic Index) is 151. Moreover, the CC80 with Vero cells is 378 µg/mL (≈ 1680 µM). Moreover, the CC50 in series [1] was found to be 806 µg/mL (≈ 3580 µM).
The zone of inhibition is the size of the clear area around the sample on an inoculated plate. Regarding penicillin, the zone of inhibition in series [2] was determined as 36 mm.
